Results as given in ChEMBL document CHEMBL1201862, “PubChem BioAssay data set” (2004).
Calls of active or inactive are those of the source.

Assays:
[1] = ADAM10 protease inhibitors, dose response, selectivity assay for ADAM17 exosite inhibitor project, biochemical, FRET peptide substrate, recombinant human ADAM10 (AID 743259);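 also: ADAM10 enzyme cleaving a FRET peptide substrate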
[2] = biological target: Disintegrin and metalloproteinase domain-containing protein 17 (Homo sapiens, UniProt P78536); experiment: exosite inhibitors of ADAM17, dose response, biochemical (AID 743260)
Sequence of Disintegrin and metalloproteinase domain-containing protein 17 (P78536 whole entry, the tested form may be a part): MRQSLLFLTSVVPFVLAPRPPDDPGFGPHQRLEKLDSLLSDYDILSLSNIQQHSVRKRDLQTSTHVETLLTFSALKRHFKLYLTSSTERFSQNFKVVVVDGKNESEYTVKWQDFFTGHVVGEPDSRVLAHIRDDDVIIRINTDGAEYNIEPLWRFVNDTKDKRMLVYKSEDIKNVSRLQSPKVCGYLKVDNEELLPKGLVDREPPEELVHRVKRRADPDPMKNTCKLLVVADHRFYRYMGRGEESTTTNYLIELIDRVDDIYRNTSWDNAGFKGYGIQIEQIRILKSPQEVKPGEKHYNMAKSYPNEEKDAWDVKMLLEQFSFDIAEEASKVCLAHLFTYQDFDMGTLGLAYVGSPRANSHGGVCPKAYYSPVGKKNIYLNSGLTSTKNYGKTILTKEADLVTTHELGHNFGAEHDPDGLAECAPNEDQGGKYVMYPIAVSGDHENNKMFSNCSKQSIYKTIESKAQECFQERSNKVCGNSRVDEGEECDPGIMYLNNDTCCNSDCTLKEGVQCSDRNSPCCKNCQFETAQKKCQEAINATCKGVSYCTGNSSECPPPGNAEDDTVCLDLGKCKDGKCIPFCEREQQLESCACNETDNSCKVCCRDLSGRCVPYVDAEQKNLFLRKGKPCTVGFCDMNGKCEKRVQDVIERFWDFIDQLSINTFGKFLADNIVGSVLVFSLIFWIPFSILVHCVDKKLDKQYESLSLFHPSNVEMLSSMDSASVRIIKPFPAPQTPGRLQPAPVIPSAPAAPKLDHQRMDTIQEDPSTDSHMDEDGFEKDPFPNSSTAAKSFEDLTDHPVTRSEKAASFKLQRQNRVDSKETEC

[3] = biological target: T1, Probable nicotinate-nucleotide adenylyltransferase (Staphylococcus aureus (strain N315), UniProt P65502); assay type: functional, Staphylococcus aureus subsp. aureus N315;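 as to IC50 Mean: confirmatory dose-response retesting of NadD inhibitor hits first found in an ultra-high-throughput screen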
T1 sequence (P65502 whole entry): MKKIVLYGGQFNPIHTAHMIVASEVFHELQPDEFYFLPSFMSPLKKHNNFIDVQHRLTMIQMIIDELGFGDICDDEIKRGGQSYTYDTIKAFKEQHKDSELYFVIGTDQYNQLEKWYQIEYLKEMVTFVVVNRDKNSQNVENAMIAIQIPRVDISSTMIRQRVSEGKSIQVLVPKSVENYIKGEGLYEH

[4] = biological target: T1, Probable nicotinate-nucleotide adenylyltransferase; assay type: functional, Staphylococcus aureus subsp. aureus N315; details: read-out: IC50_Mean
[5] = cells; assay type: functional, cell-based; details: HEK-CNG
[6] = biological target: Galanin receptor type 3 (Homo sapiens, UniProt O60755); experiment: Fluorescence-based cell-based primary high throughput dose response assay to identify antagonists of the Galanin Receptor 3 (GalR3).; assay type: functional
Sequence of Galanin receptor type 3 (O60755 whole entry): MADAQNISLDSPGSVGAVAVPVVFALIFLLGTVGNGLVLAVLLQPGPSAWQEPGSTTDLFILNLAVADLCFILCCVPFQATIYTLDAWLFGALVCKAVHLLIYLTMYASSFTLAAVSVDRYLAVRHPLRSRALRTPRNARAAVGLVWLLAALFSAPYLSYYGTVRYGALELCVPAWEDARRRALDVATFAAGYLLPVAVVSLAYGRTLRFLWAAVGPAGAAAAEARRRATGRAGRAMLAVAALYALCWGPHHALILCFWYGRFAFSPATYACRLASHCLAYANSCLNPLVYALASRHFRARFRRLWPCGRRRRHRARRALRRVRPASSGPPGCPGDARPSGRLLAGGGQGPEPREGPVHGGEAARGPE

[7] = control 3'UTR Renilla luciferase suppression, dose response, counter-screen for Shn3 inhibitor project, cell-based, Clone20-Shn3RL, cherry-picked (AID 624133); assay type: functional
[8] = Shn3 3'UTR reporter inhibitors, dose response, cell-based, Clone20 osteoblasts, firefly luciferase, cherry-picked (AID 624132); assay type: functional;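 also: firefly luciferase luminescence from reporter carrying the Shn3 3'UTR in osteoblasts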
[9] = HepG2 cell cytotoxicity, dose response, cytotoxicity control for Shn3 inhibitor project, CellTiter-Glo, cherry-picked (AID 624134); assay type: functional, cell-based
[10] = HepG2 cell cytotoxicity, dose response, cytotoxicity control, cherry-picked samples (AID 1159577); assay type: functional, cell-based
[11] = P. falciparum Dd2 growth inhibitors, dose response, SYBR Green, cherry-picked samples (AID 1159567); assay type: functional, cell-based
[12] = cytotoxicity in OVCAR8 ovarian cancer cells, dose response, PAX8 project, cell-based, plate reader, dry powder samples (AID 743197); assay type: functional; details: OVCAR-8
[13] = NIH:OVCAR-3 ovarian cancer cell cytotoxicity, dose response, PAX8 inhibitor project, plate reader, dry powder samples (AID 743044); assay type: functional, cell-based
[14] = biological target: Paired box protein Pax-8 (Homo sapiens, UniProt Q06710); experiment: inhibitors of PAX8-driven TPO luciferase reporter, dose response, RMG-I cells, cherry-pick (AID 687027); assay type: functional, cell-based;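 also: luciferase reporter driven by Pax8 target thyroperoxidase promoter measured by SteadyGlo luminescence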
Sequence of Paired box protein Pax-8 (Q06710 whole entry): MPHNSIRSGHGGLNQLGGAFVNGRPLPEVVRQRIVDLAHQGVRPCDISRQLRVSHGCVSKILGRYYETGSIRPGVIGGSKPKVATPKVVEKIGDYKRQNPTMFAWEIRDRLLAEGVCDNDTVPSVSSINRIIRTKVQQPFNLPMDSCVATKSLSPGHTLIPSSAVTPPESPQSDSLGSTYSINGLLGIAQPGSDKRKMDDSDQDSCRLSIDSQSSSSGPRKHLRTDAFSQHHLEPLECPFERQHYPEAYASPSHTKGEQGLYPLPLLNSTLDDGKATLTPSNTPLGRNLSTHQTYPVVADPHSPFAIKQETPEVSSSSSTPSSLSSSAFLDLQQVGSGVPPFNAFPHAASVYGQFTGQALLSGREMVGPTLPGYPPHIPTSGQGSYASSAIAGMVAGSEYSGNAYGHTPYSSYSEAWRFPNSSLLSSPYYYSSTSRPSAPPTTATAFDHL

[15] = biological target: T2, Sentrin-specific protease 8 (Homo sapiens, UniProt Q96LD8); assay type: functional
T2 sequence (Q96LD8 whole entry): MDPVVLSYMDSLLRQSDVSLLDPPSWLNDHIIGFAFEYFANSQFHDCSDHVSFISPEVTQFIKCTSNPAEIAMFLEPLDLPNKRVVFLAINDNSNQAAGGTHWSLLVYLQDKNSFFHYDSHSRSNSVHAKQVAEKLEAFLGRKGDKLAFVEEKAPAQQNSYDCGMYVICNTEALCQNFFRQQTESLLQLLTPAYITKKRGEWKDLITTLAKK

[16] = biological target: T2, Sentrin-specific protease 8; assay type: functional; remark: listed apart in the source
[17] = Late stage assay provider results from the probe development effort to identify inhibitors of the Plasmodium falciparum M17 Leucine Aminopeptidase (M17LAP): radiolabel-based cell-based dose response assay to identify compounds that inhibit P. falciparum growth in RBCs Set 2.; assay type: functional
[18] = T. cruzi growth inhibition in host cells, dose response, cell-based, plate reader, dry powder, set 2 (AID 652275); assay type: functional
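For EC50 in this document: target is galanin receptor GalR3 read with a cAMP biosensor in HEK293 cells.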

**Q.** Which IC50 [1] does the source give for `CC(C)(C)OC(=O)N1CCCC(C(=O)Nc2cccc(C(=O)NCCCCc3ccccc3)c2)C1` (stereo not given) here?
**A.** Its IC50 is > 69.5 µM (inactive).

**Q.** What about the IC50 [2] of the same molecule?
**A.** Its IC50 is > 69.5 µM (inactive).

**Q.** Which IC50 [3] does the source give for `CC1(OC(=O)C2CCCC2)C(=O)C=C2C=C(c3ccc(C#N)cc3)OC=C2C1=O` (stereo not given) here?
**A.** Its IC50 is 6.57 µM (active).

**Q.** And the IC50 [4]?
**A.** The IC50 was 15.7 µM (active).

**Q.** For `COc1cccc(CN2C(=O)[C@@H]3Cc4c([nH]c5ccccc45)C(C)(C)N3C2=O)c1`, which IC50 [1] is on record?
**A.** The IC50 was > 69.4 µM (inactive).

**Q.** What about the IC50 [2] of the same molecule?
**A.** The IC50 was > 69.4 µM (inactive).

**Q.** Which EC50 [5] does the source give for `COc1ccc(-c2coc3c(C(=O)NCc4ccc(OC)c(OC)c4)cccc23)c(C)c1` here?
**A.** Its EC50 is > 29.9 µM (inactive).

**Q.** What about the IC50 [6] of the same molecule?
**A.** The IC50 was 0.358 µM (active).

**Q.** And the AC50 [7]?
**A.** Its AC50 is 1.4 µM (active).

**Q.** What about the AC50 [8] of the same molecule?
**A.** Its AC50 is 0.722 µM (active).

**Q.** What about the AC50 [9] of the same molecule?
**A.** Its AC50 is 1.77 µM (active).

**Q.** For `C[C@@H]1CN([C@@H](C)CO)C(=O)c2cccc(NC(=O)Nc3cccc4ccccc34)c2O[C@@H]1CN(C)Cc1ccc(C(=O)Nc2ccccc2N)cc1`, which AC50 [10] is on record?
**A.** The AC50 was 12.1 µM (active).

**Q.** And the AC50 [11]?
**A.** Its AC50 is < 0.3 µM (active).

**Q.** Which AC50 [12] does the source give for `Cc1ccc(S(=O)(=O)Nc2ccc3c(c2)C(=O)N([C@H](C)CO)C[C@H](C)[C@@H](CN(C)S(=O)(=O)c2cccs2)OCCCC[C@H](C)O3)cc1` here?
**A.** The AC50 was > 70 µM (inactive).

**Q.** And the AC50 [13]?
**A.** Its AC50 is 20.5 µM (active).

**Q.** And the AC50 [14]?
**A.** Its AC50 is 4.23 µM (active).

**Q.** With `COCCNC(=O)C[C@@H]1C[C@H]2c3cc(NC(=O)Nc4ccc(C(F)(F)F)cc4)ccc3O[C@H]2[C@H](CO)O1` as the molecule, how does the AC50 [12] read?
**A.** Its AC50 is > 70 µM (inactive).

**Q.** What about the AC50 [14] of the same molecule?
**A.** The AC50 was 26.6 µM (active).

**Q.** With `Cc1[nH]n(-c2ccccc2)c(=O)c1S(=O)(=O)c1ccccc1` as the molecule, how does the IC50 [15] read?
**A.** Its IC50 is 4.99 µM (active).

**Q.** What about the IC50 [16] of the same molecule?
**A.** The IC50 was 12.8 µM (active).

**Q.** For `CCCCOc1ccc(CNc2c(N(C)O)c(=O)c2=O)cc1`, which IC50 [17] is on record?
**A.** The IC50 was 19 µM (inactive).

**Q.** With `CCOc1ccc(CC(=O)NO)cc1` as the molecule, how does the IC50 [17] read?
**A.** The IC50 was 7.2 µM (active).

**Q.** For `CC(C)N1C[C@H](C)[C@@H](CN(C)Cc2ccc(Cl)c(Cl)c2)Oc2c(cccc2-c2cn(-c3ccncc3)nn2)C1=O`, which AC50 [18] is on record?
**A.** Its AC50 is 0.00149 µM (active).

**Q.** For `C[C@H](CO)N1C[C@H](C)[C@H](CN(C)Cc2ccc(Oc3ccccc3)cc2)Oc2ccc(NC(=O)Nc3ccc(C(F)(F)F)cc3)cc2C1=O`, which AC50 [10] is on record?
**A.** Its AC50 is 7.87 µM (active).

**Q.** What about the AC50 [11] of the same molecule?
**A.** Its AC50 is 9.62 µM (active).
